We go through 100 molecules from a flash point compilation (Sun et al. 2020).

Where a name gives a salt, the structure may show the parent alone.

`C[C@@H]1CCCC[C@H]1O` (relative stereo) [trans-2-methylcyclohexanol]: the flash point came to 59 °C.
`CC(Cl)Cl` [1,1-dichloroethane] came in with a flash point of -10 °C.
Still for that read-out and setting: the same measure for `CCOC(CC)OCC` [1,1-diethoxypropane]: 13 °C; for `COC(C)OC` [1,1-dimethoxyethane]: -17 °C; for `CC1(C)CCCCC1` [1,1-dimethylcyclohexane]: 7 °C.
`Cc1ccc(C)c(C)c1C` [1,2,3,4-tetramethylbenzene] yielded a flash point of 68 °C.
In the case of `Cc1ccc(C)c(C)c1` [1,2,4-trimethylbenzene], the flash point worked out at 46 °C.
In the case of `CCC(O)CO` (stereo not given) [1,2-butanediol], the flash point was 93 °C.
`Clc1ccccc1Cl` [1,2-dichlorobenzene]: the flash point is 68 °C.
`CCC(Cl)CCl` (stereo not given) [1,2-dichlorobutane] came in with a flash point of 27 °C.
Molecule `ClCCCl` [1,2-dichloroethane] gave a flash point of 13 °C.
`CC(Cl)CCl` (stereo not given) [1,2-dichloropropane]: the flash point worked out at 13 °C.
On the same count and under the same terms, the same measure for `Cc1ccc(F)cc1C` [1,2-dimethyl-4-fluorobenzene]: 40 °C; for `OCCO` [1,2-ethanediol]: 108 °C; for `CCCCC(O)CO` (stereo not given) [1,2-hexanediol]: 122 °C.
With `CCCC(O)CO` (stereo not given) [1,2-pentanediol], the flash point was 105 °C.
For `CC(N)CN` (stereo not given) [1,2-propanediamine], the flash point stood at 33 °C.
Consider `C1=CC=CC=CC=C1` [1,3,5,7-cyclooctatetraene], for which the flash point worked out at 22 °C.
`Clc1cccc(Cl)c1` [1,3-dichlorobenzene]: the flash point was determined as 63 °C.
Turning to `CC(C)c1cccc(C(C)C)c1` [1,3-diisopropylbenzene], the flash point worked out at 76 °C.
The molecule `NCCCN` [1,3-propanediamine] yielded a flash point of 48 °C.
Still for that read-out and setting: the same measure for `C1COCCO1` [1,4-dioxane]: 11 °C.
Take `OCCCCCO` [1,5-pentanediol]: the flash point stood at 129 °C.
With `SCCCCCS` [1,5-pentanedithiol], the flash point was 95 °C.
Molecule `C=CCCCCCC=C` [1,8-nonadiene] displayed a flash point of 26 °C.
`CC(O)CN` (stereo not given) [1-amino-2-propanol] yielded a flash point of 67 °C.
`CCc1cccc(Br)c1` [1-bromo-3-ethylbenzene] yielded a flash point of 71 °C.
The molecule `CCCCCCCBr` [1-bromoheptane] showed a flash point of 61 °C.
The molecule `CCCCCCCCBr` [1-bromooctane] came in with a flash point of 78 °C.
On to `CCCCCBr` [1-bromopentane], for which the flash point stood at 30 °C.
Molecule `CCCCO` [1-butanol] gave a flash point of 34 °C.
In turn, `CCCCCC#CCCCCl` [1-chloro-4-decyne] yielded a flash point of 87 °C.
Molecule `CCCCCCCCCCCl` [1-chlorodecane] displayed a flash point of 83 °C.
`CCCCCCCCCl` [1-chlorooctane] yielded a flash point of 58 °C.
`CCCCCCCCCCS` [1-decanethiol]: the flash point came out at 99 °C.
In the case of `C=CCCCCCCCC` [1-decene], the flash point worked out at 38 °C.
`CCC1(C)CCCC1` [1-ethyl-1-methylcyclopentane] showed a flash point of 6 °C.
Molecule `C=CCCCCC` [1-heptene] came in with a flash point of -9 °C.
Consider `C#CCCCCC` [1-heptyne], for which the flash point was -2 °C.
As to `CCCCCCO` [1-hexanol], the flash point is 59 °C.
The same measure, in the same setting: the same measure for `C=CCCCC` [1-hexene]: -26 °C; for `C#CCCCC` [1-hexyne]: -20 °C; for `CCCCI` [1-iodobutane]: 33 °C.
`CCC[N+](=O)[O-]` [1-nitropropane] yielded a flash point of 34 °C.
Same read-out and setting: the same measure for `CCCCCCCCCO` [1-nonanol]: 98 °C; for `C#CCCCCCC` [1-octyne]: 16 °C.

The source holds these as a separate data set.
For the molecule `OCc1ccccc1` [phenylmethanol], the flash point came out at 101.00 °C.
For the molecule `C1CNCCN1` [piperazine], the flash point came to 88.00 °C.
`C=C(C)OC(C)=O` [prop-1-en-2-yl acetate] yielded a flash point of 16.00 °C.
With `C=C(C)c1ccccc1` [prop-1-en-2-ylbenzene], the flash point worked out at 54.00 °C.
In the case of `C=CC` [prop-1-ene], the flash point was -108.00 °C.
Molecule `C=CC=O` [prop-2-enal] registered a flash point of -26.00 °C.
With `C=CC(=O)O` [prop-2-enoic acid], the flash point was determined as 54.00 °C.
Molecule `C=CC(=O)Cl` [prop-2-enoyl chloride] returned a flash point of 14.00 °C.
Still for that read-out and setting: the result for `C=CCOC(=O)COCCC(C)C` [prop-2-enyl 2-(3-methylbutoxy)acetate] reads 68.00 °C; that for `C=CCOC(=O)CC(C)C` [prop-2-enyl 3-methylbutanoate], 39.00 °C.
`CC(C)N` [propan-2-amine] yielded a flash point of -37.00 °C.
The same measure, in the same setting: the same measure for `CC(C)=O` [propan-2-one]: -18.00 °C; for `CC(C)OC(=O)Cc1ccccc1` [propan-2-yl 2-phenylacetate]: 95.00 °C; for `CC(C)OC=O` [propan-2-yl formate]: -6.00 °C.
Take `CC(O)CO` (stereo not given) [propane-1,2-diol]: the flash point stood at 99.00 °C.
As for `CCCS` [propane-1-thiol], the flash point is -15.00 °C.
For `CC(C)S` [propane-2-thiol], the flash point was -34.00 °C.
In the case of `CCC(=O)O` [propanoic acid], the flash point turned out to be 54.00 °C.
`CCC(=O)OC(=O)CC` [propanoyl propanoate] showed a flash point of 63.00 °C.
Turning to `C=C(C)C(=O)OCCC` [propyl 2-methylprop-2-enoate], the flash point was 30.00 °C.
Still for that read-out and setting: the same measure for `CCCOC(=O)c1cc(O)c(O)c(O)c1` [propyl 3,4,5-trihydroxybenzoate]: 187.00 °C; for `CCCOC(C)=O` [propyl acetate]: 14.00 °C; for `CCCc1ccccc1` [propylbenzene]: 48.00 °C.
As for `Nc1ccccn1` [pyridin-2-amine], the flash point stood at 92.00 °C.
As to `NNC(=O)c1ccncc1` [pyridine-4-carbohydrazide], the flash point worked out at 190.00 °C.
The molecule `C=Cc1ccccc1` [styrene] had a flash point of 31.00 °C.
As to `CC(C)(C)c1ccccc1` [tert-butylbenzene], the flash point is 60.00 °C.
In turn, `CCCCCCCCCCCCCC` [tetradecane] yielded a flash point of 100.00 °C.
As to `C[Si](C)(C)C` [tetramethylsilane], the flash point is -27.00 °C.
Same read-out and setting: the result for `C1CCSC1` [thiolane] reads 13.00 °C.
For `CCCCOB(OCCCC)OCCCC` [tributyl borate], the flash point was 93.00 °C.
For `Cl[Si](Cl)(Cl)C1CCCCC1` [trichloro(cyclohexyl)silane], the flash point amounted to 91.00 °C.
Regarding `CCCCCCCCCCCCCCCC[Si](Cl)(Cl)Cl` [trichloro(hexadecyl)silane], the flash point was determined as 146.00 °C.
Still for that read-out and setting: the result for `CCCCCCCCCCCCCCCCCC[Si](Cl)(Cl)Cl` [trichloro(octadecyl)silane] reads 89.00 °C.
`CCCCC[Si](Cl)(Cl)Cl` [trichloro(pentyl)silane] displayed a flash point of 63.00 °C.
As for `C=CC[Si](Cl)(Cl)Cl` [trichloro(prop-2-enyl)silane], the flash point came out at 35.00 °C.
The molecule `Clc1ccc([Si](Cl)(Cl)Cl)cc1Cl` [trichloro-(3,4-dichlorophenyl)silane] gave a flash point of 141.00 °C.
`ClC(Cl)(Cl)c1ccccc1` [trichloromethylbenzene] gave a flash point of 127.00 °C.
`C1=CC2C3C=CC(C3)C2C1` (stereo not given) [tricyclo[5.2.1.02,6]deca-3,8-diene]: the flash point came to 32.00 °C.
On the same count and under the same terms, the result for `C=CCCCCCCCCCCC` [tridec-1-ene] reads 79.00 °C; that for `CCCCCCCCCCCC(C)=O` [tridecan-2-one], 107.00 °C.
On the same count and under the same terms, the result for `C[CH2][Al]([CH2]C)[CH2]C` [triethylalumane] reads -53.00 °C; that for `CCB(CC)CC` [triethylborane], -36.00 °C.
`O=P(Oc1ccccc1)(Oc1ccccc1)Oc1ccccc1` [triphenyl phosphate]: the flash point is 220.00 °C.
The same measure, in the same setting: the result for `c1ccc(P(c2ccccc2)c2ccccc2)cc1` [triphenylphosphane] reads 180.00 °C; that for `CC(C)OB(OC(C)C)OC(C)C` [tripropan-2-yl borate], 28.00 °C; that for `Cc1ccc(OP(=O)(Oc2ccc(C)cc2C)Oc2ccc(C)cc2C)c(C)c1` [tris(2,4-dimethylphenyl) phosphate], 232.00 °C.
In the case of `O=P(OCCCl)(OCCCl)OCCCl` [tris(2-chloroethyl) phosphate], the flash point came to 232.00 °C.
As to `CCCCC(CC)COP(OCC(CC)CCCC)OCC(CC)CCCC` (stereo not given) [tris(2-ethylhexyl) phosphite], the flash point was found to be 171.00 °C.
The molecule `CC(C)[CH2][Al]([CH2]C(C)C)[CH2]C(C)C` [tris(2-methylpropyl)alumane] came in with a flash point of -23.00 °C.
On to `Cc1ccc(OP(=O)(Oc2ccc(C)cc2)Oc2ccc(C)cc2)cc1` [tris(4-methylphenyl) phosphate], for which the flash point is 210.00 °C.
Molecule `CCCCCCCCCCCO` [undecan-1-ol] registered a flash point of 93.00 °C.
Still for that read-out and setting: the result for `S=C([S-])NCCNC(=S)[S-].[Zn+2]` [zinc;N-[2-(sulfidocarbothioylamino)ethyl]carbamodithioate] reads 90.00 °C; that for `CCCCCCCCCCCCCCCCCC(=O)[O-].CCCCCCCCCCCCCCCCCC(=O)[O-].[Zn+2]` [zinc;octadecanoate], 277.00 °C.
